Each structure is given as a SMILES string.

Experimental findings from patent US9321762B2, “Quinazoline compounds, method for preparing the same and use thereof” (DEVELOPMENT CENTER FOR BIOTECHNOLOGY, priority 2013, dated 2016) are described below.

For one test, the target named is T1, B-Raf kinase (Homo sapiens, UniProt P15056).
T1 construct: purchased Upstate Biotechnology
T1 sequence (P15056 whole entry): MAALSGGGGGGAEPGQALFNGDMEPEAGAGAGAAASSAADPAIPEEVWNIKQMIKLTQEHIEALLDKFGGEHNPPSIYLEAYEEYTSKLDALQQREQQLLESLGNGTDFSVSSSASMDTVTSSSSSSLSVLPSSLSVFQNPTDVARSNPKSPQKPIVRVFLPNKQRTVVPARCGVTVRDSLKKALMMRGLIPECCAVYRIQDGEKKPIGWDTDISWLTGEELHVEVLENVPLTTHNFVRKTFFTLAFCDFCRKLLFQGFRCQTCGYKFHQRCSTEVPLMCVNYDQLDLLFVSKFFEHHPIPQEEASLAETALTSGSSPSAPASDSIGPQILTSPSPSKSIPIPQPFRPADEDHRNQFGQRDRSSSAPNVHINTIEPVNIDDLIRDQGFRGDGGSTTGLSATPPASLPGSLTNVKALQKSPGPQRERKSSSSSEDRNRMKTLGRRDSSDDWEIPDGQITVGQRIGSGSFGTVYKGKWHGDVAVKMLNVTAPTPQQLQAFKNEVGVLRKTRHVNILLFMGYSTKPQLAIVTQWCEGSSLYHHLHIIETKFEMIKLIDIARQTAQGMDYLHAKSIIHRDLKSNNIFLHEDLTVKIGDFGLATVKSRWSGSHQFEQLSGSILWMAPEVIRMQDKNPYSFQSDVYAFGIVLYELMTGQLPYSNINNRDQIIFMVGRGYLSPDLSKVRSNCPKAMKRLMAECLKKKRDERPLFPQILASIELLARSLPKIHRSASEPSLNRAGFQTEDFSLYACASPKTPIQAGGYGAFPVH
As to the kind of experiment: B-Raf kinase assay ([33P] incorporation into MEK1(K97R)). The class given is biochemical. The conditions noted are these: class symbols; 8 μM ATP; read-out: IC50 against B-Raf kinase. The procedure:
Inhibition of kinase activity by a test compound disclosed herein was estimated by quantifying the amount of [^33P] incorporation of a substrate in the presence of the test compound. Standard assay conditions were 5 ng of recombinant B-Raf kinase (Upstate Biotechnology) with 500 ng MEK1(K97R) in assay buffer (8 μM ATP, 0.5 μCi [^33P]ATP (specific activity 3000 Ci/mmol, PerkinElmer), 50 mM Tris/HCl (pH7.5), and 1 mM EGTA, 1 mM Na3VO4, 1% 2-mercaptoethanol, 0.1% Brij 35, and 0.2 mg/ml BSA) in a final volume of 25 μL. Reactions were incubated at 30° C. for 30 min and stopped by adding 3% phosphoric acid, harvested onto a 96-well GF/B UniFilter (PerkinElmer) using a unifilter harvester (PerkinElmer), and counted with a TopCount microplate scintillation counter (PerkinElmer). The IC50 values of inhibitors were determined after carrying out assays at 3-fold serially diluted concentrations of each compound in duplication. The results were analyzed using linear regression software (GraphPad Prism 4; GraphPad Software Inc.).
The term IC50 denotes the point on the concentration scale where inhibition reaches its midpoint. For `CCCS(=O)(=O)Nc1ccc(F)c(Nc2ncnc3ccc(-n4ccnc4)cc23)c1F` [compound 43, N-(3-(6-(1H-imidazol-1-yl)quinazolin-4-ylamino)-2,4-difluorophenyl)propane-1-sulfonamide], the IC50 lay in the range of 1000 to 10000 nM.
Take `CCCS(=O)(=O)N(C)c1ccc(F)c(N(C)c2ncnc3ccc(-c4cccnc4F)cc23)c1F` [compound 53, N-(2,4-difluoro-3-((6-(2-fluoropyridin-3-yl)-quinazolin-4-yl)(methyl)amino)phenyl)-N-methylpropane-1-sulfonamide]: the IC50 lay within 300 to 1000 nM.
The same measure, in the same setting: then `C#Cc1ccc2ncnc(Nc3c(F)ccc(NS(=O)(=O)CCC)c3F)c2c1` [compound 49, N-(3-(6-ethynylquinazolin-4-ylamino)-2,4-difluorophenyl)propane-1-sulfonamide], with 1000 to 10000 nM; and `CCCS(=O)(=O)Nc1ccc(F)c(Nc2ncnc3ccc(-c4ccc[nH]c4=O)cc23)c1F` [compound 26, N-(2,4-difluoro-3-(6-(2-oxo-1,2-dihydropyridin-3-yl)quinazolin-4-ylamino)phenyl)propane-1-sulfonamide], with 1000 to 10000 nM.
Take `CCCS(=O)(=O)Nc1ccc(F)c(Nc2ncnc3ccc(-c4cnc(N)c(C)c4)cc23)c1F` [compound 67, N-(3-(6-(6-amino-5-methylpyridin-3-yl)quinazolin-4-ylamino)-2,4-difluorophenyl)propane-1-sulfonamide]: the IC50 was 300 to 1000 nM.
On the same count and under the same terms, to `CCS(=O)(=O)Nc1ccc(F)c(Nc2ncnc3ccc(-c4cccnc4F)cc23)c1F` [compound 19, N-(2,4-difluoro-3-(6-(2-fluoropyridin-3-yl)quinazolin-4-ylamino)phenyl)ethanesulfonamide] belongs 1000 to 10000 nM; to `CS(=O)(=O)Nc1ccc(F)c(Nc2ncnc3ccc(-c4cccnc4F)cc23)c1F` [compound 10, N-(2,4-difluoro-3-(6-(2-fluoropyridin-3-yl)quinazolin-4-ylamino)phenyl)methanesulfonamide], 1000 to 10000 nM.
The same measure, in the same setting: then `CC(C)S(=O)(=O)Nc1ccc(F)c(Nc2ncnc3ccc(-c4cccnc4F)cc23)c1F` [compound 20, N-(2,4-difluoro-3-(6-(2-fluoropyridin-3-yl)quinazolin-4-ylamino)phenyl)propane-2-sulfonamide], with 1000 to 10000 nM; and `CCCS(=O)(=O)Nc1ccc(F)c(Nc2ncnc3ccc(-c4cnc(OC)c(N)c4)cc23)c1F` [compound 60, N-(3-(6-(5-amino-6-methoxypyridin-3-yl)quinazolin-4-ylamino)-2,4-difluorophenyl)propane-1-sulfonamide], with 300 to 1000 nM; and `CCCS(=O)(=O)Nc1ccc(F)c(Nc2ncnc3ccc(-c4cccnc4C#N)cc23)c1F` [compound 64, N-(3-(6-(2-cyanopyridin-3-yl)quinazolin-4-ylamino)-2,4-difluorophenyl)propane-1-sulfonamide], with 300 to 1000 nM.
Still for that read-out and setting: then `CCCS(=O)(=O)Nc1ccc(F)c(Nc2ncnc3ccc(-c4cccnc4F)cc23)c1` [compound 6, N-(4-fluoro-3-(6-(2-fluoropyridin-3-yl)-quinazolin-4-ylamino)phenyl)propane-1-sulfonamide], with 1000 to 10000 nM.
Turning to `CCCS(=O)(=O)Nc1ccc(F)c(Oc2ncnc3ccc(-c4cccnc4F)cc23)c1F` [compound 34, N-(2,4-difluoro-3-(6-(2-fluoropyridin-3-yl)-quinazolin-4-yloxy)phenyl)propane-1-sulfonamide], the IC50 is 300 to 1000 nM.
Turning to `CCCS(=O)(=O)Nc1ccc(F)c(Nc2ncnc3ccc(-c4cccnc4F)c(F)c23)c1F` [compound 56, N-(2,4-difluoro-3-(5-fluoro-6-(2-fluoropyridin-3-yl)quinazolin-4-ylamino)phenyl)propane-1-sulfonamide], the IC50 was 300 to 1000 nM.
Turning to `CCCS(=O)(=O)Nc1c(F)ccc(Nc2ncnc3ccc(-c4ccncc4)cc23)c1F` [compound 17, N-(2,6-difluoro-3-(6-(pyridin-4-yl)quinazolin-4-ylamino)phenyl)propane-1-sulfonamide], the concentration for half-maximal inhibition (IC50) fell in the range of 1000 to 10000 nM.
Same read-out and setting: then `CCCS(=O)(=O)Nc1ccc(F)c(Nc2ncnc3ccc(-c4cncc(C(F)(F)F)c4)cc23)c1F` [compound 65, N-(2,4-difluoro-3-(6-(5-(trifluoromethyl)pyridin-3-yl)quinazolin-4-ylamino)phenyl)propane-1-sulfonamide], with 300 to 1000 nM; and `CCCS(=O)(=O)Nc1ccc(F)c(Nc2ncnc3ccc(-c4cccc(N)n4)cc23)c1F` [compound 61, N-(3-(6-(6-aminopyridin-2-yl)quinazolin-4-ylamino)-2,4-difluorophenyl)propane-1-sulfonamide], with 300 to 1000 nM.
For the compound `CCCS(=O)(=O)Nc1ccc(F)c(Nc2ncnc3ccc(-c4cccc(N5CCOCC5)n4)cc23)c1F` [compound 41, N-(2,4-difluoro-3-(6-(6-morpholinopyridin-2-yl)quinazolin-4-ylamino)phenyl)propane-1-sulfonamide], the IC50 lay within 300 to 1000 nM.
For the compound `CCCS(=O)(=O)Nc1ccc(F)c(Nc2ncnc3ccc(-c4cccnc4OC)cc23)c1F` [compound 23, N-(2,4-difluoro-3-(6-(2-methoxypyridin-3-yl)quinazolin-4-ylamino)phenyl)propane-1-sulfonamide], the IC50 fell in the range of 1000 to 10000 nM.
Still for that read-out and setting: to `CCCS(=O)(=O)Nc1ccc(F)c(Nc2ncnc3ccc(N4CCOCC4)cc23)c1F` [compound 42, N-(2,4-difluoro-3-(6-morpholinoquinazolin-4-ylamino)phenyl)propane-1-sulfonamide] belongs 1000 to 10000 nM.
On to `CCCS(=O)(=O)Nc1ccc(F)c(Nc2ncnc3cc(OC)c(-c4ccncc4)cc23)c1F` [compound 30, N-(2,4-difluoro-3-(7-methoxy-6-(pyridin-4-yl)quinazolin-4-ylamino)phenyl)propane-1-sulfonamide], for which the IC50 lay in the range of 1000 to 10000 nM.
Same read-out and setting: then `CCCS(=O)(=O)Nc1ccc(F)c(Nc2ncnc3ccc(-c4ccc(OCCOC)nc4)cc23)c1F` [compound 33, N-(2,4-difluoro-3-(6-(6-(2-methoxyethoxy)pyridin-3-yl)quinazolin-4-ylamino)phenyl)propane-1-sulfonamide], with 300 to 1000 nM.

The test is the same for the next values; noted with them: given as bound; 8 μM ATP; read-out: IC50 against B-Raf kinase.
Turning to `CCCS(=O)(=O)Oc1ccc(F)c(Nc2ncnc3ccc(-c4cccnc4F)cc23)c1F` [compound 40, 2,4-difluoro-3-(6-(2-fluoropyridin-3-yl)quinazolin-4-ylamino)phenyl propane-1-sulfonate], the IC50 was greater than 10000 nM.
On the same count and under the same terms, to `CCCS(=O)(=O)Nc1ccc(F)c(Nc2ncnc3ccc(-n4cnc5ccccc54)cc23)c1F` [compound 47, N-(3-(6-(1H-benzo[d]imidazol-1-yl)-quinazolin-4-ylamino)-2,4-difluorophenyl)propane-1-sulfonamide] belongs greater than 10000 nM.
On the same count and under the same terms, to `CCCS(=O)(=O)Nc1ccc(F)c(Nc2ncnc3cc(NCCN(C)C)c(-c4ccncc4)cc23)c1F` [compound 22, N-(3-(7-(2-(dimethylamino)ethylamino)-6-(pyridin-4-yl)quinazolin-4-ylamino)-2,4-difluorophenyl)propane-1-sulfonamide] belongs greater than 10000 nM.
Same read-out and setting: then `CCCS(=O)(=O)Nc1ccc(F)c(Nc2ncnc3ccc(-c4cccnc4)cc23)c1F` [compound 5, N-(2,4-difluoro-3-(6-(pyridin-3-yl)-quinazolin-4-ylamino)phenyl)propane-1-sulfonamide], with greater than 10000 nM; and `CCCS(=O)(=O)Nc1ccc(F)c(Nc2ncnc3ccc(-c4c[nH]nn4)cc23)c1F` [compound 52, N-(3-(6-(1H-1,2,3-triazol-4-yl)quinazolin-4-ylamino)-2,4-difluorophenyl)propane-1-sulfonamide], with greater than 10000 nM; and `CCCS(=O)(=O)Nc1c(F)ccc(Nc2ncnc3ccc(-c4cccnc4F)cc23)c1F` [compound 16, N-(2,6-difluoro-3-(6-(2-fluoropyridin-3-yl)quinazolin-4-ylamino)phenyl)propane-1-sulfonamide], with greater than 10000 nM.
Turning to `O=S1(=O)CCCN1c1ccc(F)c(Nc2ncnc3ccc(-c4cccnc4F)cc23)c1F` [compound 55, N-(2,4-difluoro-3-(6-(2-fluoropyridin-3-yl)quinazolin-4-ylamino)phenyl)propanesultam], the IC50 was greater than 10000 nM.
On to `CCCS(=O)(=O)Nc1cc(Nc2ncnc3ccc(-c4cccnc4F)cc23)c(F)cc1F` [compound 11, N-(2,4-difluoro-5-(6-(2-fluoropyridin-3-yl)-quinazolin-4-ylamino)phenyl)propane-1-sulfonamide], for which the IC50 was greater than 10000 nM.
